Like-named read-outs stand apart in the source and are kept apart here.

The test system of one data set is Botrytis cinerea. Briefly: In vivo preventive test Botrytis cinerea (grey mould). The settings on record: gherkin plants. As to the method: (§1) Example B: In Vivo Preventive Test Botrytis cinerea (Grey Mould) [table] The active ingredients are made soluble and homogenized in a mixture of Dimethyl sulfoxide/Acetone/Tween®80 and then diluted in water to the desired concentration. The young plants of gherkin are treated by spraying the active ingredient prepared as described above. Control plants are treated only with an aqueous solution of Acetone/Dimethyl sulfoxide/Tween® 80. After 24 hours, the plants are contaminated by spraying the leaves with an aqueous suspension of Botrytis cinerea spores. The contaminated gherkin plants are incubated for 4 to 5 days at 17° C. and at 90% relative humidity.

In the next data set the test system is Uromyces appendiculatus. Briefly: In vivo preventive test on Uromyces appendiculatus (bean rust). The settings on record: bean plants. As to the method:
Example G: In Vivo Preventive Test on Uromyces appendiculatus (Bean Rust) [table] The active ingredients are made soluble and homogenized in a mixture of Dimethyl sulfoxide/Acetone/Tween®80 and then diluted in water to the desired concentration. The young plants of bean are treated by spraying the active ingredient prepared as described above. Control plants are treated only with an aqueous solution of Acetone/Dimethyl sulfoxide/Tween® 80. After 24 hours, the plants are contaminated by spraying the leaves with an aqueous suspension of Uromyces appendiculatus spores.

For the next data set, the system named is Septoria tritici. The data set is described as follows: In vivo preventive test on Septoria tritici (wheat). The settings on record: 500 ppm, wheat plants, preventive spray, evaluated 24 days after inoculation. On the procedure:
as §1, with “E:” for “B:”, “on Septoria tritici (Wheat)” for “Botrytis cinerea (Grey Mould)”, “wheat” for “gherkin”, “Septoria tritici” for “Botrytis cinerea”, “72 hours at 18° C. and at 100% relative humidity and then for 21” for “4 to 5”, “20°” for “17°”

Data set [1] can be described thus: log P by HPLC on reversed-phase column (C 18), EEC Directive 79/831 Annex V.A8. The format is physicochemical. Particulars: for logP: Table 1, HPLC, 40° C., 0.1% aqueous formic acid and acetonitrile. As to the method: In table 1, the log P values were determined in accordance with EEC Directive 79/831 Annex V.A8 by HPLC (High Performance Liquid Chromatography) on a reversed-phase column (C 18), using the method described below: Temperature: 40° C.; Mobile phases: 0.1% aqueous formic acid and acetonitrile; linear gradient from 10% acetonitrile to 90% acetonitrile. Calibration was carried out using unbranched alkan-2-ones (comprising 3 to 16 carbon atoms) with known log P values (determination of the log P values by the retention times using linear interpolation between two successive alkanones). lambda-max-values were determined using UV-spectra from 200 nm to 400 nm and the peak values of the chromatographic signals.

The test system of the next data set is Sphaerotheca fuliginea. Briefly: In vivo preventive test on Sphaerotheca fuliginea (powdery mildew on cucurbits). Particulars: 500 ppm, gherkin plants, preventive spray, evaluated 15 days after inoculation. On the procedure: Example F: In Vivo Preventive Test on Sphaerotheca fuliginea (Powdery Mildew on Cucurbits) [table] The active ingredients are made soluble and homogenized in a mixture of Dimethyl sulfoxide/Acetone/Tween®80 and then diluted in water to the desired concentration. The young plants of gherkin are treated by spraying the active ingredient prepared as described above. Control plants are treated only with an aqueous solution of Acetone/Dimethyl sulfoxide/Tween® 80. After 24 hours, the plants are contaminated by spraying the leaves with an aqueous suspension of Sphaerotheca fuliginea spores.

Another data set relates to Alternaria brassicae. Briefly: In vivo preventive test on Alternaria brassicae (leaf spot on radish). Particulars: 500 ppm, radish plants, preventive spray, evaluated 6 days after inoculation. On the procedure:
Example A: In Vivo Preventive Test on Alternaria brassicae (Leaf Spot on Radish) [table] The active ingredients are made soluble and homogenized in a mixture of Dimethyl sulfoxide/Acetone/Tween®80 and then diluted in water to the desired concentration. The young plants of radish are treated by spraying the active ingredient prepared as described above. Control plants are treated only with an aqueous solution of Acetone/Dimethyl sulfoxide/Tween® 80. After 24 hours, the plants are contaminated by spraying the leaves with an aqueous suspension of Alternaria brassicae spores. The contaminated radish plants are incubated for 6 days at 20° C. and at 100% relative humidity.

The next data set deals with Puccinia recondita. The data set is described as follows: In vivo preventive test on Puccinia recondita (brown rust on wheat). Particulars: 500 ppm, wheat plants, preventive spray, evaluated 11 days after inoculation. As to the method: Example C: In Vivo Preventive Test on Puccinia recondita (Brown Rust on Wheat) [table] The active ingredients are made soluble and homogenized in a mixture of Dimethyl sulfoxide/Acetone/Tween®80 and then diluted in water to the desired concentration. The young plants of wheat are treated by spraying the active ingredient prepared as described above. Control plants are treated only with an aqueous solution of Acetone/Dimethyl sulfoxide/Tween® 80. After 24 hours, the plants are contaminated by spraying the leaves with an aqueous suspension of Puccinia recondita spores.

Another data set has as its system Pyrenophora teres. Briefly: In vivo preventive test on Pyrenophora teres (net blotch on barley). The settings on record: 500 ppm, barley plants, preventive spray, evaluated 14 days after inoculation. On the procedure: Example D: In Vivo Preventive Test on Pyrenophora teres (Net Blotch on Barley) [table] The active ingredients are made soluble and homogenized in a mixture of Dimethyl sulfoxide/Acetone/Tween®80 and then diluted in water to the desired concentration. The young plants of barley are treated by spraying the active ingredient prepared as described above. Control plants are treated only with an aqueous solution of Acetone/Dimethyl sulfoxide/Tween® 80. After 24 hours, the plants are contaminated by spraying the leaves with an aqueous suspension of Pyrenophora teres spores.

The test system of data set [2] is Fusarium nivale (var. majus). The data set is described as follows: Efficacy against Fusarium nivale (var. majus) (wheat), curative test. Particulars: for Efficacy: evaluated 5 days after inoculation. The data set is classed as in vivo. On the procedure: Example I: Efficacy Against Fusarium nivale (Var. Majus) (Wheat) [table] To produce a suitable preparation of active compound, 1 part by weight of active compound or active compound combination is mixed with the stated amounts of solvent and emulsifier, and the concentrate is diluted with water to the desired concentration. […] After the spray coating has dried on, the plants remain in a greenhouse under translucent incubation cloches at a temperature of approximately 10° C. and a relative atmospheric humidity of approximately 100%.

A further data set has as its system Pyricularia oryzae. The format is in vivo. Particulars: dose 500 ppm, rice plants, preventive spray, evaluated 6 days after inoculation.
[3] abbreviates: Table B, 500 ppm, preventive spray, evaluated 4 to 5 days after inoculation.
Setting [4] is: Table G, 500 ppm, preventive spray, evaluated 11 days after inoculation.

`Cn1nc(C(F)F)c(C(=S)N(Cc2cccc3c2C2CCC3C2)C2CC2)c1F` (stereo not drawn) [I.02]: the Efficacy with Botrytis cinerea (setting [3]) was determined as 97%; in the data set on Uromyces appendiculatus (setting [4]) it was 100%; in the data set on Septoria tritici, 100%; with Sphaerotheca fuliginea, 100%; in the data set with Alternaria brassicae, 79%; with Puccinia recondita, 97%. The same compound displayed a log partition coefficient (logP) in data set [1] of 4.64.
In the case of `Cn1nc(C(F)F)c(C(=O)N(Cc2cccc3c2C2C=CC3C2)C2CC2)c1F` (stereo not drawn) [I.04], the Efficacy is recorded as 97% in the data set on Botrytis cinerea (setting [3]); 98% in the data set with Septoria tritici; 100% in the data set on Sphaerotheca fuliginea; 83% in the data set on Alternaria brassicae; 100% in the data set on Pyrenophora teres. Also, the lipophilicity (logP) in [1] was 3.55.
For the compound `Cn1nc(C(F)F)c(C(=O)N(Cc2cccc3c2C2CCC3C2)C2CC2)c1F` (stereo not drawn) [I.01], the Efficacy in the data set with Botrytis cinerea (Table B2, dose 100 ppm) is 98%; with Botrytis cinerea (Table B2, dose 500 ppm) it was 100/100; with Botrytis cinerea (setting [3]), 100%; in the data set with Uromyces appendiculatus (Table G2, dose 100 ppm), 99%; in the data set with Uromyces appendiculatus (Table G2, dose 100 ppm, listed as 1.01), “at least 95%”; with Septoria tritici it was 100%. Besides, the Efficacy in [2] (dose 250 ppm) is 100%; in data set [2] (dose 500 ppm) it was 100%; in the data set with Sphaerotheca fuliginea, 100%; with Alternaria brassicae it was 81%; in the data set on Pyricularia oryzae, 75%; with Pyricularia oryzae (listed as 1.01) it was “at least 70%”. The Efficacy with Pyrenophora teres came out at 100%; in the data set with Puccinia recondita, 98%. The protection entry in the data set with Botrytis cinerea (dose of 100 ppm and 500 ppm) is “at least 98%”; in data set [2] (dose of 250 ppm and 500 ppm), “total protection”. For the same compound, in data set [1], the log partition coefficient (logP) worked out at 3.87.
For the compound `Cn1cc(C(=O)N(Cc2cccc3c2C2CCC3C2=C(Cl)Cl)C2CC2)c(C(F)F)n1` (stereo not drawn) [I.07], the Efficacy is 97% with Septoria tritici, 98% with Sphaerotheca fuliginea, 97% in the data set with Alternaria brassicae and 97% in the data set with Pyrenophora teres. In data set [1], this compound returned a lipophilicity (logP) of 4.13.
Turning to `Cn1nc(C(F)F)c(C(=S)N(Cc2cccc3c2C2CCC3C2=C(Cl)Cl)C2CC2)c1Cl` (stereo not drawn) [I.09], the Efficacy in the data set with Uromyces appendiculatus (setting [4]) is listed as 78%; in the data set with Sphaerotheca fuliginea, 98%. In addition, the log partition coefficient (logP) in data set [1] is listed as 5.39.
Regarding `Cn1nc(C(F)F)c(C(=O)N(Cc2cccc3c2C2CCC3C2=C(Cl)Cl)C2CC2)c1F` (stereo not drawn) [I.08, N-cyclopropyl-N-([9-(dichloromethylene)-1,2,3,4-tetrahydro-1,4-methanonaphthalen-5-yl]methyl)-3-(difluoromethyl)-5-fluoro-1-methyl-1H-pyrazole-4-carboxamide], the Efficacy came out at 100% with Botrytis cinerea (setting [3]); 100% in the data set with Septoria tritici; 100% in the data set with Sphaerotheca fuliginea; 100% in the data set with Alternaria brassicae; 97% in the data set on Pyrenophora teres; 83% in the data set with Puccinia recondita. In [1], the chromatographic logP was determined as 4.51.
For the compound `Cn1nc(C(F)F)c(C(=S)N(Cc2cccc3c2C2CCC3C2=C(Cl)Cl)C2CC2)c1F` (stereo not drawn) [I.11], the Efficacy was 100% with Botrytis cinerea (setting [3]); 84% in the data set on Uromyces appendiculatus (setting [4]); 100% in the data set on Septoria tritici; 100% in the data set on Sphaerotheca fuliginea; 88% with Puccinia recondita. In data set [1], this compound had a logP of 5.23.

These data come from patent publication US9765049B2, “N-cycloalkyl-N-[(fusedphenyl)methylene]-(thio)carboxamide derivatives” (BAYER CROPSCIENCE AG, priority 2013, dated 2017).
